Patent publication EP3366672B9, “BIPHENYL COMPOUND AND APPLICATION THEREOF” (Shenyang Sinochem Agrochemicals R & D Co., Ltd., priority 2015, dated 2017)

How the values were obtained:
Format in all cases: in vivo
[1] = test system: deutonymph of spider mite (Tetranychuscinnabarinus); test: Greenhouse test against deutonymph of spider mite, spray on bean leaves; settings: after 72 h
Experimental: Ten healthy female adult spider mites (Tetranychuscinnabarinus) were put into two true leaves of bean plants. The adult spider mites were removed after 24 h and the eggs were to be continued incubating. After ten days, the number of deutonymph were investigated and recorded. The solution of certain concentrations of test compounds was sprayed by using a sprinkler. Three replicates were set for each treatment. Then the deutonymph of spider mites were maintained in standard observation room. After 72 h, the survival mites in each leaf were observed, and mortality of the mites was determined.

[2] = test system: citrus red mite (Panonychuscitri); test: Field trial against citrus red mite (Jiangxi, China)
Experimental: The trial was carried out in a 2-year-old Shatang orange orchard in Ganzhou city Jiangxi province, trifoliate orange trees were selected as stocks, the intervals between two plants was 1.50 × 2.50 m, the average height was 1.45 m and the crown width was 1.30 m. Two trees were selected in each plot, with random arrangement and 4 replications. Compound 1 (10% SC) was set at three different doses (100 mg/L, 50 mg/L and 25 mg/L), spirodiclofen (29% SC) was set at one dose (50 mg/L), and pyridaben (20% EC) was set at one dose (100 mg/L). MatabiSupergreen 16 Knapsack Sprayer 16 Liter was used to spray evenly with 2L of spraying volume for each plant. The plants were treated once in May at that time, adults, nymphs, eggs of citrus red mite all existed, with adults/eggs = 1/1.2. During the day the plants were treated, and the weather was good with the average temperature at 24°C. The first three days after treatment were all clear days. The number of mites was investigated before treatment and on the 1st, 3rd, 7th, 14th, 22nd and 28th day after treatment respectively. Two trees of each plot were investigated according to the five directions of the tree crown (east, south, west, north and central), 5 leaves in each direction were investigated to calculate the number of living mites, with 50 leaves each plot. The decline rate of mite population and corrected efficacy were calculated according to formulas below: The decline rate of mite population(%) = [(the average number of mite on each leaf; before treatment−the average number of mite on each leaf after treatment)/the; average number of mite on each leaf before treatment] × 100. [formula] Corrected efficacy(%) = [(the decline rate of mite population in treated area−the; decline rate of mite population in untreated area)/(100−the decline rate of mite; population in untreated area)] × 100. [formula]

[3] = test system: egg of spider mite (Tetranychuscinnabarinus); test: Greenhouse test against egg of spider mite, spray on bean leaf; settings: eggs, after 5 days
Experimental: Two true leaves of bean plants were taken and one true leaf was removed. Then ten healthy female adult spider mites were put into the true leaf. The adult spider mites were removed after 24 h and the eggs were investigated. The solution of certain concentrations of test compounds was sprayed by using a sprinkler. Three replicates were set for each treatment. The untreated eggs were all incubated after 5 days. The unincubation of treated eggs in leaf was observed, and incubation inhibition rate of the eggs was determined.

| SMILES | Mortality (%) ([1]; 0.25mg/L) | Mortality (%) ([1]; 0.5mg/L) | Mortality (%) ([1]; 1mg/L) | Corrected efficacy (%) ([2]; 100 mg/L, The 1st day after treatment) | Corrected efficacy (%) ([2]; 100 mg/L, The 3rd day after treatment) | Corrected efficacy (%) ([2]; 100 mg/L, The 7th day after treatment) | Corrected efficacy (%) ([2]; 100 mg/L, The 14th day after treatment) | Corrected efficacy (%) ([2]; 100 mg/L, The 22nd day after treatment) | Corrected efficacy (%) ([2]; 100 mg/L, The 28th day after treatment) | Incubation inhibition rate (%) ([3]; 1mg/L) | Incubation inhibition rate (%) ([3]; 5mg/L) | Incubation inhibition rate (%) [3] [%] | Corrected efficacy (%) ([2]; 50 mg/L, The 1st day after treatment) | Corrected efficacy (%) ([2]; 50 mg/L, The 3rd day after treatment) | Corrected efficacy (%) ([2]; 50 mg/L, The 7th day after treatment) | Corrected efficacy (%) ([2]; 50 mg/L, The 14th day after treatment) | Corrected efficacy (%) ([2]; 50 mg/L, The 22nd day after treatment) | Corrected efficacy (%) ([2]; 50 mg/L, The 28th day after treatment) |
| --- | --- | --- | --- | --- | --- | --- | --- | --- | --- | --- | --- | --- | --- | --- | --- | --- | --- | --- |
| CC(C)(C)c1ccc(CSc2cnn(C(C)(C)C)c(=O)c2Cl)cc1 [pyridaben] | 25 | 60 | 84 | 0 | 65 | 90 | 93 | 92 | 95 |  |  |  |  |  |  |  |  |  |
| CCC(C)(C)C(=O)OC1=C(c2ccc(Cl)cc2Cl)C(=O)OC12CCCCC2 [spirodiclofen] |  |  |  |  |  |  |  |  |  | 37 | 100 | 13 | 20 | 48 | 63 | 80 | 71 | 70 |
